Reference: patent US20110184178A1, “POLYMORPHS OF 5-(3-(ETHYLSULFONYL)PHENYL)-3,8-DIMETHYL-N-(1-METHYLPIPERIDIN-4-YL)-9H-PYRIDO[2,3-B]INDOLE-7-CARBOXAMIDE AND METHODS OF USE THEREFOR” (Takeda Pharmaceutical Company Limited, priority 2008, published 2011)
Where a name gives a salt, the structure may show the parent alone.

Columns and labels:
Type in all cases: physicochemical
[1] = Approximate solubility screen of Compound I in different solvents; conditions: for solubility: organic solvent or mixture, thermodynamic from solid
Description: A solubility screen of Compound I was evaluated in 20 different solvents chosen as MeCN, dioxane, acetone, MtBE, EtOH, EtOAc, IPAc, IPA, THF, 2-MeTHF, MEK, DMF, AcOH, MeOH, cyclohexane, heptane, DCM, toluene, NMP, and DMAc, to select appropriate primary and binary solvents for the polymorph screen. One to four mg of the Compound I was charged to 2-dram clear vials equipped with magnetic stir bars and solvent was added in 250-μL portions with heating to 55° C. until complete dissolution was observed or a maximum of 6 mL was added. […] Solvents and other reagents were of ACS or HPLC grade and were used as received.

[2] = Slurry experiments (form by XRPD after slurrying in a solvent); conditions: 2.0 mL
Description: 50 to 60 mg of Form A of Compound I was weighed out into 2 dram amber vials and the material was slurried in 2 mL of a solvent. The slurry experiments were carried out at either ambient temperature or at 40° C. Samples were obtained from slurries after one day, one week, and two weeks. Tables 15 and 16 detail the results of the slurry experiments.

[3] = Solubility study of Form A in de-ionized water and 20 mM phosphate buffer at pH 3.2 (HPLC, XRPD of solids); conditions: for solubility: thermodynamic from solid
Description: Solubility was determined for Form A of Compound I by suspending the material in de-ionized water and 20 mM phosphate buffer at pH 3.2 and ambient temperature. Approximately 40 mg of Form A of Compound I was charged to 2-dram amber vials equipped with magnetic stir bars, followed by the addition of DI water or phosphate buffer (2.0 mL) in one portion. The samples were allowed to equilibrate with stirring for 16 h, followed by centrifugation. An aliquot of the supernatant liquid was analyzed by HPLC, and the solids isolated by filtration and dried under vacuum at ambient temperature for analysis by XRPD. Samples were allowed to stir for an additional 6 days and concentration determined by HPLC.

[4] = Physical characterization of the polymorphs and salt (XRPD, DSC, TGA, 1H-NMR, KF, moisture sorption): stability assessment; conditions: solid form
Description: Described herein are Form A, Form B, Form C, Form D, Form E, Form F and Form G of Compound I. Various tests were performed in order to physically characterize the polymorphs of Compound I, including X-ray powder diffraction (XRPD), differential scanning calorimetry (DSC), thermogravimetric analysis (TGA), solution proton nuclear magnetic resonance (^1H-NMR), and moisture sorption and desorption analysis (M S/Des). Detailed experimental conditions for each of the analytical techniques are described in the Examples section. […] A summary of these experiments and the results are presented below and in Table 12.

[5] = Moisture-sorption analysis (gravimetric adsorption/desorption, 25° C.)
Description: Further, the material gained enough water to form the dihydrate in approximately 45 minutes at 30% RH during adsorption and lost enough water to form the anhydrate at 15% RH during desorption in less than 60 minutes. […] The sample was further allowed to equilibrate at ambient laboratory conditions overnight and reanalyzed by XRPD. […] The moisture sorption experiment of Form C of Compound I provides a curve similar to the Form A curve (FIG. 11). […] Further, the material gained enough water to form the dihydrate in less than 60 minutes at 30% RH during adsorption and lost enough water to form the anhydrate at 15% RH during desorption in approximately 80 minutes. […] Moisture-sorption experiments were carried out on all samples by first drying the sample at 0% RH and 25° C. until an equilibrium weight was reached or for a maximum of four hours. The sample was then subjected to an isothermal (25° C.) adsorption scan from 10 to 90% RH in steps of 10%. Samples were then allowed to equilibrate to an asymptotic weight at each point for a maximum of four hours. Following adsorption, a desorption scan from 85 to 0% RH (at 25° C.) was run in steps of −10% again allowing a maximum of four hours for equilibration to an asymptotic weight. Samples were dried for one hour at 80° C. and the resulting solids analyzed by XRPD.

[6] = Form A slurried in water, 40 ° C.
[7] = Form A slurried in water, Ambient

**Q.** Which Soluble ([1]; 2-Me—THF, 1.6 mg, 5.75 mL, heating to 55° C.) does the source give for `CCS(=O)(=O)c1cccc(-c2cc(C(=O)NC3CCN(C)CC3)c(C)c3[nH]c4ncc(C)cc4c23)c1` [Compound I, 5-(3-(ethylsulfonyl)phenyl)-3,8-dimethyl-N-(1-methylpiperidin-4-yl)-9H-pyrido[2,3-b]indole-7-carboxamide] here?
**A.** No

**Q.** And the Soluble ([1]; AcOH, 2.1 mg in 0.75 mL, Temp RT)?
**A.** Yes

**Q.** What about the “Conc.” value ([1]; AcOH, Temp RT, 2.1 mg in 0.75 mL) of the same compound?
**A.** 2800 µg/mL

**Q.** And the Soluble ([1]; DCM, 2.6 mg, 4.50 mL, heating to 55° C.)?
**A.** No

**Q.** What about the Soluble ([1]; DMA, 2.8 mg in 0.50 mL, Temp 55) of the same compound?
**A.** Yes

**Q.** What about the “Conc.” value ([1]; DMA, Temp 55, 2.8 mg in 0.50 mL) of the same compound?
**A.** 5600 µg/mL

**Q.** What about the Soluble ([1]; DMF, 1.8 mg in 0.50 mL, Temp RT) of the same compound?
**A.** Yes

**Q.** What about the “Conc.” value ([1]; DMF, Temp RT, 1.8 mg in 0.50 mL) of the same compound?
**A.** >3600 µg/mL

**Q.** What about the Soluble ([1]; EtOAc, 2.2 mg, 5.75 mL, heating to 55° C.) of the same compound?
**A.** No

**Q.** And the Soluble ([1]; EtOH, 1.6 mg in 4.75 mL, Temp 55)?
**A.** Yes

**Q.** What about the “Conc.” value ([1]; EtOH, Temp 55, 1.6 mg in 4.75 mL) of the same compound?
**A.** 340 µg/mL

**Q.** And the Soluble ([1]; Heptane, 1.9 mg, 3.50 mL, heating to 55° C.)?
**A.** No

**Q.** And the Soluble ([1]; IPAC, 2.6 mg, 5.75 mL, heating to 55° C.)?
**A.** No

**Q.** What about the Soluble ([1]; MTBE, 1.3 mg, 5.75 mL, heating to 55° C.) of the same compound?
**A.** No

**Q.** What about the Soluble ([1]; MeCN, 1.7 mg in 5.75 mL, Temp 55) of the same compound?
**A.** Yes

**Q.** And the “Conc.” value ([1]; MeCN, Temp 55, 1.7 mg in 5.75 mL)?
**A.** 300 µg/mL

**Q.** What about the Soluble ([1]; MeOH, 1.7 mg in 2.00 mL, Temp 55) of the same compound?
**A.** Yes

**Q.** What about the “Conc.” value ([1]; MeOH, Temp 55, 1.7 mg in 2.00 mL) of the same compound?
**A.** 850 µg/mL

**Q.** And the Soluble ([1]; NMP, 2.4 mg in 0.50 mL, Temp 55)?
**A.** Yes

**Q.** What about the “Conc.” value ([1]; NMP, Temp 55, 2.4 mg in 0.50 mL) of the same compound?
**A.** 4800 µg/mL

**Q.** What about the Soluble ([1]; THF, 1.3 mg in 3.75 mL, Temp 55) of the same compound?
**A.** Yes

**Q.** And the “Conc.” value ([1]; THF, Temp 55, 1.3 mg in 3.75 mL)?
**A.** 350 µg/mL

**Q.** And the Soluble ([1]; Toluene, 1.8 mg, 3.50 mL, heating to 55° C.)?
**A.** No

**Q.** What about the Soluble ([1]; c-Hexane (cyclohexane), 1.8 mg, 3.50 mL, heating to 55° C.) of the same compound?
**A.** No

**Q.** What about the “solubility (in words)” value ([1]; in MeCN, MTBe, EtOAc, IPAc, IPA, THF, MEK, heptane and water) of the same compound?
**A.** Poor solubility

**Q.** What about the “solubility (in words)” value ([1]; in MeOH, DMF, DMA, NMP, CHCl3, AcOH and EtOH) of the same compound?
**A.** Good solubility

**Q.** What about the “solubility (in words)” value ([1]; in polar solvents including MeCN, EtOH, THF, DMF, AcOH, MeOH, NMP, and DMAc) of the same compound?
**A.** appreciable solubility

**Q.** What about the solubility ([1]; Acetone, 1.8 mg, 5.75 mL, heating to 55° C.) of the same compound?
**A.** < 330 µg/mL

**Q.** And the solubility ([1]; Dioxane, 1.7 mg, 5.75 mL, heating to 55° C.)?
**A.** < 330 µg/mL

**Q.** And the solubility ([1]; IPA, 1.2 mg, 5.75 mL, heating to 55° C.)?
**A.** < 330 µg/mL

**Q.** What about the solubility ([1]; MEK, 1.9 mg, 5.75 mL, heating to 55° C.) of the same compound?
**A.** < 330 µg/mL

**Q.** What about the “XRPD Results Day 1*” value ([2]; Form A slurried in Acetone, Ambient) of the same compound?
**A.** amorphous

**Q.** What about the “XRPD Results Day 1*” value ([2]; Form A slurried in MEK, Ambient) of the same compound?
**A.** amorphous

**Q.** What about the “XRPD Results Day 1*” value ([2]; Form A slurried in THF, Ambient) of the same compound?
**A.** amorphous

**Q.** What about the “XRPD Results Day 1*” value [2, 6] of the same compound?
**A.** amorphous

**Q.** What about the “XRPD Results Week 1*” value [2, 6] of the same compound?
**A.** amorphous

**Q.** What about the “XRPD Results Day 1*” value [2, 7] of the same compound?
**A.** amorphous

**Q.** What about the “XRPD Results Week 1*” value [2, 7] of the same compound?
**A.** amorphous

**Q.** And the solubility ([3]; aqueous buffer, 20 mM phosphate buffer at pH 3.2)?
**A.** < 100 µg/mL

**Q.** What about the solubility ([3]; de-ionized water, water) of the same compound?
**A.** < 100 µg/mL

**Q.** Which “stability (based on the available characterization data)” value (“stability” for short) [4] does the source give for `CCS(=O)(=O)c1cccc(-c2cc(C(=O)NC3CCN(C)CC3)c(C)c3[nH]c4ncc(C)cc4c23)c1` [Form B, 5-(3-(ethylsulfonyl)phenyl)-3,8-dimethyl-N-(1-methylpiperidin-4-yl)-9H-pyrido[2,3-b]indole-7-carboxamide] here?
**A.** stable under ambient non-aqueous conditions

**Q.** For `CCS(=O)(=O)c1cccc(-c2cc(C(=O)NC3CCN(C)CC3)c(C)c3[nH]c4ncc(C)cc4c23)c1` [Form C, 5-(3-(ethylsulfonyl)phenyl)-3,8-dimethyl-N-(1-methylpiperidin-4-yl)-9H-pyrido[2,3-b]indole-7-carboxamide], which “time to lose enough water to form the anhydrate” value ([5]; at 15% RH during desorption) is on record?
**A.** approximately 80 minutes

**Q.** And the “time to gain enough water to form the dihydrate” value ([5]; at 30% RH during adsorption)?
**A.** less than 60 minutes

**Q.** What about the “hydration state in the moisture sorption experiment” value ([5]; during both adsorption and desorption, 25° C.) of the same compound?
**A.** convert to a stable dihydrate above 20% RH

**Q.** And the “stability” value [4]?
**A.** stable under ambient low humidity conditions

**Q.** What about the “form conversion in aqueous media” value ([3]; during the solubility determination) of the same compound?
**A.** converted to Form A

**Q.** Which “stability” value [4] does the source give for `CCS(=O)(=O)c1cccc(-c2cc(C(=O)NC3CCN(C)CC3)c(C)c3[nH]c4ncc(C)cc4c23)c1` [Form D, 5-(3-(ethylsulfonyl)phenyl)-3,8-dimethyl-N-(1-methylpiperidin-4-yl)-9H-pyrido[2,3-b]indole-7-carboxamide] here?
**A.** stable under ambient non-aqueous conditions

**Q.** With `CCS(=O)(=O)c1cccc(-c2cc(C(=O)NC3CCN(C)CC3)c(C)c3[nH]c4ncc(C)cc4c23)c1` [Form E, 5-(3-(ethylsulfonyl)phenyl)-3,8-dimethyl-N-(1-methylpiperidin-4-yl)-9H-pyrido[2,3-b]indole-7-carboxamide] as the compound, how does the “stability” value [4] read?
**A.** stable under ambient non-aqueous conditions

**Q.** With `CCS(=O)(=O)c1cccc(-c2cc(C(=O)NC3CCN(C)CC3)c(C)c3[nH]c4ncc(C)cc4c23)c1` [HPF6 salt of Compound I] as the compound, how does the “stability” value [4] read?
**A.** stable under ambient conditions
